Measured values reported in US20160263169A1, “COMPOSITION COMPRISING AN EXTRACT OF COMBINED HERB CONSISTING OF HEAT PROCESSED GINSENG, HOUTTUYNIAE HERBA, PERILLA LEAF AND TEA LEAF OR THE PROCESSED EXTRACT THEREOF AS AN ACTIVE INGREDIENT SHOWING HAIR-STIMULATING ACTIVITY AND PREVENTING ACTIVITY FROM HAIR LOSS, AND THE USE THEREOF” (GINSENG SCIENCE INC., priority 2015, published 2016).

Tested on: C57BL/6 mouse
Assay: Promoting effect on hair growth (hair-regrown area/shaved area) in shaved C57BL/6 mouse
Assay type: in vivo
Conditions: 2.5 mg spread on the back of mouse once a day
Protocol: 6 weeks-old mouse (C57BL/6, 18-20 g, at the beginning of catagen, Orient Bio Inc. Seoul, Korea) was accustomed to the breeding environment for 1 week and anesthetized intramuscularly with an anesthetizer (2.5 mg/mouse, Ketamine, rompun, Bayer Korea Inc.). The back-hair of anesthetized mouse was removed by a grainer and the mice were divided into four groups consisting of 10 mice, respectively, i.e., (1) negative control group: treatment group with only solvent, (2) positive control group: treatment group with Minoxidil (0.5%, w/w), (3) comparative test group: treatment group with the extract prepared in Comparative Example 1 dissolved in adjuvant in a dose dependent manner, (4) test sample group: treatment group with the extract prepared in Examples dissolved in adjuvant in a dose dependent manner. 2.5 mg of the test samples was spread on the back of mouse once a day for 20 days.
The ratio of hair-regrown area/shaved area was quantitatively analyzed by image analyzer (Image-Pro, USA) after shooting the hair-grown area with digital camera (Canon, Japan) and the test result was scored to 5 scores, i.e., score 0: ineffective; score 1: merely effective; score 2: favorably effective; score 3; potently effective; score 4; most potently effective as shown in Table 2.

**Q.** Which Criteria (5th day) does the source give for `Nc1cc(N2CCCCC2)nc(N)[n+]1[O-]` [Positive control, Minoxidil] here?
**A.** The Criteria was “IE (Ineffective (IE))”.

**Q.** What about the Hair growth ratio (5th day) of the same molecule?
**A.** Its Hair growth ratio is 14%.

**Q.** What about the Score (5th day) of the same molecule?
**A.** The Score was 0 (0-20%).

**Q.** And the Criteria (10th day)?
**A.** The Criteria was “FE (favorably effective (FE))”.

**Q.** What about the Hair growth ratio (10th day) of the same molecule?
**A.** Its Hair growth ratio is 42%.

**Q.** And the Score (10th day)?
**A.** Its Score is 2 (40-60%).

**Q.** What about the Criteria (15th day) of the same molecule?
**A.** The Criteria was “PE (potently effective (PE))”.

**Q.** And the Hair growth ratio (15th day)?
**A.** The Hair growth ratio was 62%.

**Q.** What about the Score (15th day) of the same molecule?
**A.** The Score was 3 (60-70%).

**Q.** And the Criteria (20th day)?
**A.** Its Criteria is “PE (potently effective (PE))”.

**Q.** What about the Hair growth ratio (20th day) of the same molecule?
**A.** The Hair growth ratio was 68%.

**Q.** And the Score (20th day)?
**A.** The Score was 3 (60-70%).
